Laboratory results from the supplement of paper PMC10307832.

Legend:
Assay in all cases: relative viability (nuclei count vs DMSO), 5 days (fraction); higher = more cells survive
[1] = compound: Cn1c(Nc2ccc(C(F)(F)F)cc2)nc2cc(Oc3ccnc(-c4ncc(C(F)(F)F)[nH]4)c3)ccc21 [RAF265] + C[C@]1(O)C[C@@H](c2nc(-c3ccc4ccc(-c5ccccc5)nc4c3)c3c(N)nccn32)C1 [Linsitinib] (partner 1 µM)
Method in brief: (§1)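 Lung cancer cell lines were seeded in 1536-well plates and dosed by pin tool the next day, with either a single drug or a fixed anchor-drug dose combined with five library-drug doses (not always all listed) spaced in √10 steps. Five days later, one step fixed the cells and stained their nuclei (final 0.05% Triton X-100, 1% formaldehyde, 1 ug/ml Hoechst), and nuclei were counted on 4× images. Relative viability is the nuclei count in treated wells divided by the count in vehicle wells, and each value is the median of duplicate plates.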

[2] = compound: Cn1c(Nc2ccc(C(F)(F)F)cc2)nc2cc(Oc3ccnc(-c4ncc(C(F)(F)F)[nH]4)c3)ccc21 [RAF265] + CC1(C)CCC(c2ccc(Cl)cc2)=C(CN2CCN(c3ccc(C(=O)NS(=O)(=O)c4ccc(N[C@H](CCN5CCOCC5)CSc5ccccc5)c(S(=O)(=O)C(F)(F)F)c4)cc3)CC2)C1 [Navitoclax] (partner 0.5 µM)
Method in brief: as §1

[3] = compound: C1=CC=C2C(=C1)C=CC(=C2SSC3=C(C=CC4=CC=CC=C43)O)O [IPA-3] + CC(=O)c1c(C)c2cnc(Nc3ccc(N4CCNCC4)cn3)nc2n(C2CCCC2)c1=O [Palbociclib] (partner 0.5 µM)
Method in brief: as §1

[4] = compound: C1=CC=C2C(=C1)C=CC(=C2SSC3=C(C=CC4=CC=CC=C43)O)O [IPA-3] + CS(=O)(=O)N1CCN(Cc2cc3nc(-c4cccc5[nH]ncc45)nc(N4CCOCC4)c3s2)CC1 [Pictilisib] (partner 1 µM)
Method in brief: as §1

Cell Line | relative viability ([1]; first compound 0.01 µM) | relative viability ([1]; first compound 0.03162 µM) | relative viability ([1]; first compound 0.1 µM) | relative viability ([1]; first compound 0.3162 µM) | relative viability ([1]; first compound 1 µM) | relative viability ([2]; first compound 0.01 µM) | relative viability ([2]; first compound 0.03162 µM) | relative viability ([2]; first compound 0.1 µM) | relative viability ([2]; first compound 0.3162 µM) | relative viability ([2]; first compound 1 µM) | relative viability ([3]; first compound 0.2 µM) | relative viability ([3]; first compound 0.6325 µM) | relative viability ([3]; first compound 2 µM) | relative viability ([3]; first compound 6.325 µM) | relative viability ([3]; first compound 20 µM) | relative viability ([4]; first compound 0.2 µM) | relative viability ([4]; first compound 0.6325 µM) | relative viability ([4]; first compound 2 µM) | relative viability ([4]; first compound 6.325 µM) | relative viability ([4]; first compound 20 µM)
NCI-H1666 | 0.894 | 0.923 | 0.888 | 0.854 | 0.565 | 1.01 | 1 | 0.882 | 0.931 | 0.454 | 0.643 | 0.672 | 0.624 | 0.616 | 0.658 | 0.541 | 0.521 | 0.445 | 0.403 | 0.541
NCI-H2170 | – | – | – | – | – | 0.586 | 0.434 | 0.462 | 0.3 | 0.383 | 0.447 | 0.389 | 0.364 | 0.334 | 0.441 | 0.324 | 0.302 | 0.303 | 0.303 | 0.346
NCI-H2342 | – | – | – | – | – | – | – | – | – | – | 0.6 | 0.479 | 0.553 | 0.57 | 0.575 | – | – | – | – | –
LCLC-97TM1 | 0.169 | 0.158 | 0.149 | 0.136 | 0.11 | 0.512 | 0.356 | 0.461 | 0.191 | 0.135 | 0.23 | 0.2 | 0.226 | 0.185 | 0.177 | 0.195 | 0.165 | 0.198 | 0.216 | 0.175
NCI-H1299 | 1 | 0.878 | 0.749 | 0.578 | 0.414 | 1.03 | 0.988 | 1.06 | 0.989 | 0.738 | – | – | – | – | – | 0.905 | 0.858 | 0.834 | 0.654 | 0.687
NCI-H3122 | 1.02 | 1.2 | 0.947 | 1.02 | 0.841 | 1 | 1.08 | 1.01 | 1.04 | 0.967 | 0.185 | 0.174 | 0.176 | 0.219 | 0.203 | 0.612 | 0.566 | 0.559 | 0.697 | 0.594
NCI-H1395 | 1.14 | 1 | 1.05 | 1.08 | 0.741 | 1.46 | 1.16 | 1.15 | 1.28 | 0.867 | 0.681 | 0.524 | 0.634 | 0.608 | 0.61 | 0.607 | 0.61 | 0.441 | 0.651 | 0.668
Calu-6 | 0.94 | 0.83 | 0.523 | 0.279 | 0.223 | 0.753 | 0.588 | 0.569 | 0.304 | 0.221 | – | – | – | – | – | 1.06 | 0.872 | 0.933 | 0.736 | 0.848
NCI-H1703 | 0.43 | 0.561 | 0.819 | 0.171 | 0.251 | 1.16 | 0.95 | 0.848 | 0.576 | 0.283 | – | – | – | – | – | 0.261 | 0.21 | 0.25 | 0.253 | 0.246
NCI-H1650 | – | – | – | – | – | 1.17 | 1.18 | 1.53 | 1.19 | 1.22 | 0.472 | 0.314 | 0.328 | 0.311 | 0.327 | 0.811 | 0.391 | 0.569 | 0.551 | 0.736
NCI-H1648 | – | – | – | – | – | – | – | – | – | – | 0.222 | 0.223 | 0.248 | 0.263 | 0.229 | – | – | – | – | –
ChaGo-K-1 | – | – | – | – | – | 1.1 | 1 | 1.03 | 1.04 | 0.823 | 0.952 | 0.824 | 0.923 | 0.955 | 1.02 | 0.728 | 0.785 | 0.663 | 0.824 | 0.824
NCI-H650 | 0.972 | 0.845 | 0.666 | 0.442 | 0.375 | – | – | – | – | – | 0.373 | 0.361 | 0.323 | 0.361 | 0.426 | 1.15 | 0.89 | 0.922 | 1.17 | 1.15
NCI-H661 | 0.589 | 0.412 | 0.686 | 0.455 | 0.33 | – | – | – | – | – | 0.406 | 0.434 | 0.389 | 0.435 | 0.366 | 0.409 | 0.458 | 0.472 | 0.547 | 0.418
NCI-H522 | – | – | – | – | – | – | – | – | – | – | 1.16 | 1.14 | 0.893 | 1.18 | 1.31 | – | – | – | – | –
ABC-1 | 0.875 | 0.803 | 0.933 | 0.661 | 0.407 | – | – | – | – | – | 0.733 | 0.81 | 0.392 | 0.748 | 0.851 | 0.863 | 0.698 | – | 0.803 | 0.75
SW 900 | – | – | – | – | – | – | – | – | – | – | 0.536 | 0.518 | 0.545 | 0.49 | 0.587 | – | – | – | – | –
NCI-H596 | 1.05 | 0.97 | 1.1 | 1.09 | 0.657 | 1.02 | 0.862 | 1.03 | 1.06 | 0.576 | – | – | – | – | – | 0.41 | 0.412 | 0.409 | 0.401 | 0.45
IA-LM | 0.641 | 0.532 | 0.536 | 0.732 | 0.404 | 0.73 | – | 0.663 | 0.597 | 0.609 | – | – | – | – | – | 0.397 | 0.246 | 0.349 | 0.315 | 0.442
A549 | 0.61 | 0.536 | 0.648 | 0.273 | 0.249 | 1.31 | 1.19 | 1.06 | 0.669 | 0.624 | – | – | – | – | – | 0.607 | 0.445 | 0.713 | 0.483 | 0.696
LCLC-103H | 1.03 | 1.14 | 1.1 | 0.944 | 0.641 | – | – | – | – | – | 0.496 | 0.498 | 0.485 | 0.438 | 0.492 | 0.572 | 0.596 | 0.533 | 0.578 | 0.705
NCI-H358 | 0.843 | 0.565 | 0.443 | 0.37 | 0.267 | – | – | – | – | – | 0.141 | 0.117 | 0.153 | 0.14 | 0.157 | 0.35 | 0.347 | 0.372 | 0.372 | 0.291
